Results from patent US9833497B2, “Human originated EGF domain proteins and use of the same” (CHENGDU SOURCEBIO LIMITED-LIABILITY COMPANY, priority 2013, dated 2017).

Columns and labels:
Format in all cases: cell-based
Klebsiella pneumonia = experiment: MIC against Gram-negative bacteria: Klebsiella pneumonia
Procedure, shortened: (§1)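 Bacteria grown in LB at 37° C to McFarland 0.5, resuspended and seeded at 5×10^5 CFU/mL in 96-well plates. Purified human EGF-domain proteins two-fold serially diluted, triplicate wells; cultured at 37° C, shaking 175 rpm. MIC = lowest protein concentration with no growth.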

Proteus mirabilis = experiment: MIC against Gram-negative bacteria: Proteus mirabilis
Procedure, shortened: as §1

Aeromonas hydrophila = experiment: MIC against Gram-negative bacteria: Aeromonas hydrophila
Procedure, shortened: as §1

Citrobacter diversus = experiment: MIC against Gram-negative bacteria: Citrobacter diversus
Procedure, shortened: as §1

Pseudomonas aeruginosa = experiment: MIC against Gram-negative bacteria: Pseudomonas aeruginosa
Procedure, shortened: as §1

Moraxella catarrhalis = experiment: MIC against Gram-negative bacteria: Moraxella catarrhalis
Procedure, shortened: as §1

E. coli DH5α = experiment: Antibacterial activity: MIC and growth curve against E. coli DH5α in 96-well plate; conditions: minimal inhibitory concentration against E. coli DH5α; 96-well plate, 5×10^5 CFU/mL, 37° C., judged after 8 h
Procedure, shortened: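 Log-phase bacteria (OD600 ~0.5) resuspended in LB at 5×10^5 CFU/mL, exposed to recombinant protein at 50, 25, 12.5 μg/mL final in triplicate, 37 °C shaking at 175 rpm. OD600 read every 30 min; MIC is lowest concentration showing no growth.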

Enterobacter cloacae = experiment: MIC against Gram-negative bacteria: Enterobacter cloacae
Procedure, shortened: as §1

Serratia marcescens = experiment: MIC against Gram-negative bacteria: Serratia marcescens
Procedure, shortened: as §1

Proteus vulgaris = experiment: MIC against Gram-negative bacteria: Proteus vulgaris
Procedure, shortened: as §1

E. coli BL21 = experiment: MIC against Gram-negative bacteria: E. coli BL21
Procedure, shortened: as §1

[1] = 10 h cultivation at 37° C., 5×10^5 CFU/mL, two-fold serial dilution
[2] = 96-well plate, 5×10^5 CFU/mL, 37° C., 10 h

PRT1107 (LMPLCWSKPCHNNATCEDSVDNYTCHCWPGYTGAQCE; listed as Homo sapiens)
25 µg/mL: MIC E. cloacae (Enterobacter cloacae; [1]) | MIC S. marcescens (Serratia marcescens; [1])
12.5 µg/mL: MIC A. hydrophila (Aeromonas hydrophila; [1]) | MIC P. aeruginosa (Pseudomonas aeruginosa; [1]) | MIC M. catarrhalis (Moraxella catarrhalis; [1]) | MIC (E. coli DH5α) | MIC P. vulgaris (Proteus vulgaris; [1])
50 µg/mL: MIC K. pneumonia (Klebsiella pneumonia; [1]) | MIC P. mirabilis (Proteus mirabilis; [1]) | MIC C. diversus (Citrobacter diversus; [1]) | MIC E. coli BL21 (E. coli BL21; [1])

PRT1070 (RPGTCNLQCFNGGSCFLNARRQPKCRCQPRYTGDKCE; listed as Homo sapiens)
12.5 µg/mL: MIC K. pneumonia (Klebsiella pneumonia; [1]) | MIC P. mirabilis (Proteus mirabilis; [1]) | MIC A. hydrophila (Aeromonas hydrophila; [1]) | MIC C. diversus (Citrobacter diversus; [1]) | MIC M. catarrhalis (Moraxella catarrhalis; [1]) | MIC S. marcescens (Serratia marcescens; [1]) | MIC P. vulgaris (Proteus vulgaris; [1]) | MIC E. coli BL21 (E. coli BL21; [1])
25 µg/mL: MIC P. aeruginosa (Pseudomonas aeruginosa; [1]) | MIC (E. coli DH5α) | MIC E. cloacae (Enterobacter cloacae; [1])

PRT796 (SGDFCIPLCTEECVHGRCVSPDTCHCEPGWGGPDCS; listed as Homo sapiens)
5 µg/mL: MIC (μg/mL) C. diversus (Citrobacter diversus; C. diversus, 10 h cultivation at 37° C., 5×10^5 CFU/mL)
12.5 µg/mL: MIC (μg/mL) P. mirabilis (Proteus mirabilis; P. mirabilis, 10 h cultivation at 37° C., 5×10^5 CFU/mL) | MIC (μg/mL) P. aeruginosa (Pseudomonas aeruginosa; P. aeruginosa, 10 h cultivation at 37° C., 5×10^5 CFU/mL)
25 µg/mL: MIC (E. coli DH5α)
50 µg/mL: MIC (μg/mL) K. pneumonia (Klebsiella pneumonia; K. pneumonia, 10 h cultivation at 37° C., 5×10^5 CFU/mL) | MIC (μg/mL) A. hydrophila (Aeromonas hydrophila; A. hydrophila, 10 h cultivation at 37° C., 5×10^5 CFU/mL) | MIC (μg/mL) M. catarrhalis (Moraxella catarrhalis; M. catarrhalis, 10 h cultivation at 37° C., 5×10^5 CFU/mL) | MIC (μg/mL) E. cloacae (Enterobacter cloacae; E. cloacae, 10 h cultivation at 37° C., 5×10^5 CFU/mL) | MIC (μg/mL) S. marcescens (Serratia marcescens; S. marcescens, 10 h cultivation at 37° C., 5×10^5 CFU/mL) | MIC (μg/mL) P. vulgaris (Proteus vulgaris; P. vulgaris, 10 h cultivation at 37° C., 5×10^5 CFU/mL) | MIC (μg/mL) E. coli BL21 (E. coli BL21; E. coli BL21, 10 h cultivation at 37° C., 5×10^5 CFU/mL)

PRT543 (CGCHEVGATGPTCEPFGGQCPCHAHVIGRDCSRCATGYWGFPNCRP; listed as Homo sapiens)
50 µg/mL: MIC against K. pneumonia (Klebsiella pneumonia; [2]) | MIC against A. hydrophila (Aeromonas hydrophila; [2]) | MIC against P. vulgaris (Proteus vulgaris; [2]) | MIC against E. coli BL21 (E. coli BL21; [2])
25 µg/mL: MIC against P. mirabilis (Proteus mirabilis; [2]) | MIC against C. diversus (Citrobacter diversus; [2]) | MIC against S. marcescens (Serratia marcescens; [2])
12.5 µg/mL: MIC against P. aeruginosa (Pseudomonas aeruginosa; [2]) | MIC against M. catarrhalis (Moraxella catarrhalis; [2]) | MIC (E. coli DH5α) | MIC against E. cloacae (Enterobacter cloacae; [2])

PRT967 (ARDACESQPCRAGGTCSSDGMGFHCTCPPGVQGRQCE; listed as Homo sapiens)
25 µg/mL: MIC (Klebsiella pneumonia; K. pneumonia, 10 h cultivation at 37° C.) | MIC (Aeromonas hydrophila; A. hydrophila, 10 h cultivation at 37° C.) | MIC (Moraxella catarrhalis; M. catarrhalis, 10 h cultivation at 37° C.) | MIC (Proteus vulgaris; P. vulgaris, 10 h cultivation at 37° C.)
12.5 µg/mL: MIC (Proteus mirabilis; P. mirabilis, 10 h cultivation at 37° C.) | MIC (Citrobacter diversus; C. diversus, 10 h cultivation at 37° C.) | MIC (Pseudomonas aeruginosa; P. aeruginosa, 10 h cultivation at 37° C.) | MIC (Enterobacter cloacae; E. cloacae, 10 h cultivation at 37° C.) | MIC (Serratia marcescens; S. marcescens, 10 h cultivation at 37° C.) | MIC (E. coli BL21; E. coli BL21, 10 h cultivation at 37° C.)
50 µg/mL: MIC (E. coli DH5α)

PRT640 (DMDECQDPSSCIDGQCVNTEGSYNCFCTHPMVLDASE; listed as Homo sapiens)
25 µg/mL: MIC M. catarrhalis (Moraxella catarrhalis; [2]) | MIC E. cloacae (Enterobacter cloacae; [2]) | MIC S. marcescens (Serratia marcescens; [2]) | MIC E. coli BL21 (E. coli BL21; [2])
12.5 µg/mL: MIC K. pneumonia (Klebsiella pneumonia; [2]) | MIC C. diversus (Citrobacter diversus; [2]) | MIC (E. coli DH5α) | MIC P. vulgaris (Proteus vulgaris; [2])
50 µg/mL: MIC P. mirabilis (Proteus mirabilis; [2]) | MIC A. hydrophila (Aeromonas hydrophila; [2]) | MIC P. aeruginosa (Pseudomonas aeruginosa; [2])

PRT649 (DVDECLEPNVCANGDCSNLEGSYMCSCHKGYTRTPDHKHCR; listed as Homo sapiens)
25 µg/mL: MIC P. mirabilis (Proteus mirabilis; [2]) | MIC S. marcescens (Serratia marcescens; [2])
12.5 µg/mL: MIC K. pneumonia (Klebsiella pneumonia; [2]) | MIC A. hydrophila (Aeromonas hydrophila; [2]) | MIC M. catarrhalis (Moraxella catarrhalis; [2]) | MIC E. coli BL21 (E. coli BL21; [2])
50 µg/mL: MIC C. diversus (Citrobacter diversus; [2]) | MIC P. aeruginosa (Pseudomonas aeruginosa; [2]) | MIC (E. coli DH5α) | MIC E. cloacae (Enterobacter cloacae; [2]) | MIC P. vulgaris (Proteus vulgaris; [2])
